Structures can show the parent of a compound that is named as a salt. Where two headings read alike, the source gives them in different places.
What was measured:
[1] = tested on: NCI-H460 non-small cell lung carcinoma cells; assay: Cytotoxicity on NCI-H460 tumor cell line (sulphorodamine B test); assay type: cell-based; settings: further 48 h in drug-free medium, read-out: NCI-H460 IC50 μM ± SD
Experimental: To evaluate the effect of the compounds on survival cells, the sulphorodamine B test was used. To test the effects of the compounds on cell growth, NCI-H460 non-small cell lung carcinoma cells were used. Tumor cells were grown in RPMI 1640 containing 10% fetal bovine serum (GIBCO).
Tumor cells were seeded in 96-well tissue culture plates at approximately 10% confluence and were allowed to attach and recover for at least 24 h. Varying concentrations of the drugs were then added to each well to calculate their IC50 value (the concentration which inhibits the 50% of cell survival). The plates were incubated at 37° C. for 24 h. At the end of the treatment, the plates were washed by remotion of the surnatant and addition of PBS. Medium culture (200 μL) was added again and the plates were incubated for further 48 h at 37° C. 200 μl PBS and 50 μl of cold 80% TCA were added. The plates were incubated on ice for at least 1 h. TCA was removed, the plates were washed 3 times for immersion in distilled-water and dried on paper and at 40° C. for 5 min. Then 200 μl of 0.4% sulphorodamine B in 1% acetic acid were added. The plates were incubated at room temperature for other 30 min. Sulphorodamine B was removed, the plates were washed for immersion in 1% acetic acid for 3 times, then they were dried on paper and at 40° C. for 5 min. Then 200 μl Tris 10 mM were added, the plates were kept under stirring for 20 min. The survival cell was determined as optical density by a Multiskan spectrofluorimeter at 540 nm. The amount of cells killed was calculated as the percentage decrease in sulphorodamine B binding compared with control cultures, the latter involving the use of (2E)-3-[3′-(1-adamantyl)-4′-hydroxy[1,1′-biphenyl]-4-yl]-2-propenoic acid (ST1926).
The IC50 values were calculated with the “ALLFIT” program.

[2] = tested on: human ovarian cancer cell line A2780; assay: Cytotoxicity on A2780 tumor cell line; assay type: cell-based; settings: 5 Mm as printed in head (text: 5 μM), preliminary results; for inhibition at 5 µM: Homo sapiens, A2780
Experimental: The antiproliferative effect of the compounds is reported as percentages of inhibition of cellular proliferation measured at 5 μM as reported in table 3.

[3] = tested on: A431 tumour cells; assay: In vivo study on A431 epidermoid carcinoma; settings: iv 10 mg/10 ml/kg, qdx3/wx2w, after two weeks of treatment, sc A431 in CD1 nude mice; p=0.036 versus vehicle
Experimental: The tumour was generated by subcutaneous injection of A431 tumour cells (5×10^6/100 μl/mouse), in 0.1 ml medium Tc199 in the right flank of CD1 nude mice. 3 days after tumour injection, ST5589 was delivered iv at a dose of 10 mg/10 ml/kg according to the schedule qdx3/wx2w in a group of 9 mice.
To evaluate the antitumour activity of ST5589, tumour diameters were measured biweekly with a Vernier caliper and tumour volume was calculated according to the formula TV=d^2×D/2
where d and D are the shortest and longest diameters, respectively.
The efficacy of the drug was assessed as the tumour volume inhibition according to the formula reported underneath: […]

[4] = Chemical stability in solution at various pH; assay type: physicochemical; settings: after 24 h at pH 7.4
Experimental: The compounds were screened at various pH in order to test their relative chemical stability in solution. All of them resulted stable after incubation for 3 h at pH=1.2. Chemical stability was also investigated at pH=7.4 after 24 h incubation.

[5] = Homo sapiens, NCI-H460, 24 h treatment

| Structure (SMILES) | IC50 [1, 5] [µM] | inhibition at 5 µM [2] [%] | other results |
| --- | --- | --- | --- |
| N#CCOc1ccc(-c2ccc(/C=C/C(=O)O)cc2)cc1C12CC3CC(CC(C3)C1)C2 [Example 21, (E)-3-(3′-Adamantan-1-yl-4′-cyanomethoxybiphenyl-4-yl)-acrylic acid] | 0.85 ± 0.06 |  |  |
| O=C(O)/C=C/c1ccc(-c2ccc(OC(=O)C3CC3)c(C34CC5CC(CC(C5)C3)C4)c2)cc1 [Example 16, (E)-cyclopropanecarboxylic acid 3-adamantan-1-yl-4′-(2-carboxyvinyl)-biphenyl-4-yl ester] |  |  | IC50 ([1]; 24 h treatment): 0.85 ± 0.03 µM; % Inhibition at 5 Mm on A2780 cell line [2]: 93% |
| CCCOC(=O)OCOc1ccc(-c2ccc(/C=C/C(=O)O)cc2)cc1C12CC3CC(CC(C3)C1)C2 [Example 19] |  |  | IC50 ([1]; 24 h treatment): 0.32 ± 0.01 µM |
| O=C(O)/C=C/c1ccc(-c2ccc(OCN3C(=O)c4ccccc4C3=O)c(C34CC5CC(CC(C5)C3)C4)c2)cc1 [Example 17, (E)-3-[3′-Adamantan-1-yl-4′-(1,3-dioxo-1,3-dihydroisoindol-2-ylmethoxy)-biphenyl-4yl]-acrylic acid] | 8.4 ± 1.6 |  |  |
| CN1CCN(CCCC(=O)Oc2ccc(-c3ccc(/C=C/C(=O)O)cc3)cc2C23CC4CC(CC(C4)C2)C3)CC1 [Example 5, 4-(4-methyl-piperazin-1-yl)-butyric acid 3-adamantan-1-yl-4′-((E)-2-carboxy-vinyl)-biphenyl-4-yl ester dihydrochloride] | 0.24 ± 0.01 | 92 |  |
| CCCCCCCCCCC(=O)Oc1ccc(-c2ccc(/C=C/C(=O)O)cc2)cc1C12CC3CC(CC(C3)C1)C2 [Example 3, undecanoic acid 3-adamantan-1-yl-4′-((E)-2-carboxy-vinyl)-biphenyl-4-yl ester] | 1.54 ± 0.08 | 94 |  |
| COCCOCOc1ccc(-c2ccc(/C=C/C(=O)O)cc2)cc1C12CC3CC(CC(C3)C1)C2 [Example 15, (E)-3-[3′-Adamantan-1-yl-4′-(2-methoxyethoxymethoxy)-biphenyl-4-yl]acrylic acid] | 4.2 ± 0.04 | 78 |  |
| CC(C)C[C@H](NC(=O)Oc1ccc(-c2ccc(/C=C/C(=O)O)cc2)cc1C12CC3CC(CC(C3)C1)C2)C(=O)NCC(=O)O [Example 14, (E)-3-{3′-Adamantan-1-yl-4′-[(S)-1-(carboxymethyl-carbamoyl)-3-methyl-butylcarbamoyloxy]-biphenyl-4-yl}-acrylic acid] | 3.5 ± 0.2 |  |  |
| CC(C)[C@H](N)C(=O)Oc1ccc(-c2ccc(/C=C/C(=O)O)cc2)cc1C12CC3CC(CC(C3)C1)C2 [Example 1, (S)-2-amino-3-methyl-butyric acid 3-adamantan-1-yl-4′-((E)-2-carboxy-vinyl)-biphenyl-4-yl ester hydrochloride] | 0.51 ± 0.003 | 93 |  |
| O=C(O)/C=C/c1ccc(-c2ccc(OC(=O)N3CCC(N4CCCCC4)CC3)c(C34CC5CC(CC(C5)C3)C4)c2)cc1 [Example 11, [1,4′]bipiperidinyl-1′-carboxylic acid 3-adamantan-1-yl-4′-((E)-2-carboxy-vinyl)-biphenyl-4-yl ester hydrochloride] | > 20 |  |  |
| O=C(O)/C=C/c1ccc(-c2ccc(OC(=O)COCCOCCOCC(=O)O)c(C34CC5CC(CC(C5)C3)C4)c2)cc1 [Example 2, (E)-3-(3′-adamantan-1-yl-4′-{2-[2-(2-carboxymethoxy-ethoxy)-ethoxy]-acetoxy}-biphenyl-4-yl)-acrylic acid] | 0.17 ± 0.007 | 93 |  |
| NCCCCNC(=O)Oc1ccc(-c2ccc(/C=C/C(=O)O)cc2)cc1C12CC3CC(CC(C3)C1)C2 [Example 8, (E)-3-[3′-adamantan-1-yl-4′-(4-amino-butylcarbamoyloxy)-biphenyl-4-yl]-acrylic acid hydrochloride] | 2.6 ± 0.08 | 70 |  |
| Cl.O=C(O)/C=C/c1ccc(-c2ccc(OC(=O)CCCN3CCOCC3)c(C34CC5CC(CC(C5)C3)C4)c2)cc1 [Example 4, 4-morpholin-4-yl-butyric acid 3-adamantan-1-yl-4′-((E)-2-carboxy-vinyl)-biphenyl-4-yl ester hydrochloride] | 0.22 ± 0.009 | 94 | reduction in tumour volume (tumour volume inhibition) [3]: 34% |
| CCCCCCCCCCCNC(=O)Oc1ccc(-c2ccc(/C=C/C(=O)O)cc2)cc1C12CC3CC(CC(C3)C1)C2 [Example 10, (E)-3-(3′-adamantan-1-yl-4′-undecyl-carbamoyloxy-biphenyl-4-yl)-acrylic acid] |  |  | IC50 ([1]; 24 h treatment): 1.39 ± 0.04 µM; % Inhibition at 5 Mm on A2780 cell line [2]: 90% |
| O=C(O)/C=C/c1ccc(-c2ccc(O)c(C34CC5CC(CC(C5)C3)C4)c2)cc1 [Control, (2E)-3-[3′-(1-adamantyl)-4′-hydroxy[1,1′-biphenyl]-4-yl]-2-propenoic acid, reference compound] | 0.13 |  |  |
| CCCCCC=CC/C=C/CCCCCCCC(=O)Oc1ccc(-c2ccc(C=CC(=O)O)cc2)cc1C12CC3CC(CC(C3)C1)C2 [Example 18, (E)-Octadeca-9,12-dienoic acid 3-adamantan-1-yl-4′-(2-carboxyvinyl)-biphenyl-4-yl ester] | 7.8 ± 0.7 | 55 |  |
| O=C(O)/C=C/c1ccc(-c2ccc(OCCN3CCOCC3)c(C34CC5CC(CC(C5)C3)C4)c2)cc1 [Example 23, (E)-3-[3′-Adamantan-1-yl-4′-(2-morpholin-4-yl-ethoxy)biphenyl-4-yl]-acrylic acid] | > 5 |  |  |
| CNCCNC(=O)Oc1ccc(-c2ccc(/C=C/C(=O)O)cc2)cc1C12CC3CC(CC(C3)C1)C2 [Example 6, (E)-3-[3′-adamantan-1-yl-4′-(2-methylamino-ethylcarbamoyloxy)-biphenyl-4-yl]-acrylic acid] | 0.24 ± 0.008 | 93 |  |
| O=C(O)/C=C/c1ccc(-c2ccc(OC(=O)NC3CCN(C(=O)OCc4ccccc4)CC3)c(C34CC5CC(CC(C5)C3)C4)c2)cc1 [Example 13, 4-[3-adamantan-1-yl-4′-((E)-2-carboxy-vinyl)-biphenyl-4-yloxycarbonylamino]-piperidine-1-carboxylic acid benzyl ester] | 5 | 71 |  |
| CC(C)NC(=O)Oc1ccc(-c2ccc(/C=C/C(=O)O)cc2)cc1C12CC3CC(CC(C3)C1)C2 [Example 12] |  |  | IC50 ([1]; 24 h treatment): 5 µM |
| O=C(O)/C=C/c1ccc(-c2ccc(OC(=O)NCCN3CCOCC3)c(C34CC5CC(CC(C5)C3)C4)c2)cc1 [Example 9, (E)-3-[3′-adamantan-1-yl-4′-(2-morpholin-4-yl-ethyl-carbamoyloxy)-biphenyl-4-yl]-acrylic acid hydrochloride] | 0.92 ± 0.05 | 90 |  |
| NC1(C(=O)Oc2ccc(-c3ccc(/C=C/C(=O)O)cc3)cc2C23CC4CC(CC(C4)C2)C3)CC1.O=C(O)C(F)(F)F [Example 20, (E)-1-[3-Adamantan-1-yl-4′-(2-carboxyvinyl)-biphenyl-4-yloxycarbonyl]-cyclopropyl-ammonium trifluoroacetate] | 0.1 ± 0.003 | 94 | amount of E-4-(3-(1-adamantyl)-4-hydroxyphenyl)cinnamic acid (hydrolysed parent compound) [4]: 8% |
| O=C(O)/C=C/c1ccc(-c2ccc(OC(=O)NCC(=O)O)c(C34CC5CC(CC(C5)C3)C4)c2)cc1 [Example 7, (E)-3-(3′-adamantan-1-yl-4′-carboxymethylcarbamoyloxy-biphenyl-4-yl)-acrylic acid] | 3 ± 0.1 | 26 |  |
